Results: ChEMBL document CHEMBL1201862, “PubChem BioAssay data set” (2004)
Active and inactive are the calls of the source.

How the values were obtained:
[1] = target: Testis-specific serine/threonine-protein kinase 2 (Homo sapiens, UniProt Q96PF2); type: functional;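 note: part of the Navigating the Kinome panel, target entry STK22B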
[2] = target: Serine/threonine-protein kinase MRCK alpha (Homo sapiens, UniProt Q5VT25); type: functional
Aurora kinase B = Aurora kinase B (Homo sapiens, UniProt Q96GD4); type: functional
[3] = target: Fibroblast growth factor receptor 1 (Homo sapiens, UniProt P11362); type: functional
[4] = target: Testis-specific serine/threonine-protein kinase 1 (Homo sapiens, UniProt Q9BXA7); type: functional
[5] = target: Interleukin-1 receptor-associated kinase 1 (Homo sapiens, UniProt P51617); type: functional;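 note: IRAK1 tested as one member of a kinome panel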
[6] = target: Vascular endothelial growth factor receptor 3 (Homo sapiens, UniProt P35916); type: functional;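 note: value from a kinome-wide profiling panel, with FLT4 as the panel member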
[7] = target: High affinity nerve growth factor receptor (Homo sapiens, UniProt P04629); type: functional;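 note: NTRK1 tested as one member of a kinome-wide profiling panel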
[8] = target: MAP kinase-activated protein kinase 3 (Homo sapiens, UniProt Q16644); type: functional;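 note: value comes from a kinome-wide profiling panel in which MAPKAPK3 is one of the panel members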
[9] = target: Serine/threonine-protein kinase Nek2 (Homo sapiens, UniProt P51955); type: functional
[10] = target: Macrophage colony-stimulating factor 1 receptor (Homo sapiens, UniProt P07333); type: functional;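 note: value comes from the Navigating the Kinome screening panel, CSF1R member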
LIM domain kinase 1 = LIM domain kinase 1 (Homo sapiens, UniProt P53667); test: Navigating the Kinome. Panel member name: LIMK1; type: functional
[11] = target: cGMP-dependent protein kinase 1 (Homo sapiens, UniProt Q13976); type: functional;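 note: value from a kinome panel screen with PRKG1 as the panel member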
cGMP-dependent protein kinase 1, sequence (Q13976 whole entry): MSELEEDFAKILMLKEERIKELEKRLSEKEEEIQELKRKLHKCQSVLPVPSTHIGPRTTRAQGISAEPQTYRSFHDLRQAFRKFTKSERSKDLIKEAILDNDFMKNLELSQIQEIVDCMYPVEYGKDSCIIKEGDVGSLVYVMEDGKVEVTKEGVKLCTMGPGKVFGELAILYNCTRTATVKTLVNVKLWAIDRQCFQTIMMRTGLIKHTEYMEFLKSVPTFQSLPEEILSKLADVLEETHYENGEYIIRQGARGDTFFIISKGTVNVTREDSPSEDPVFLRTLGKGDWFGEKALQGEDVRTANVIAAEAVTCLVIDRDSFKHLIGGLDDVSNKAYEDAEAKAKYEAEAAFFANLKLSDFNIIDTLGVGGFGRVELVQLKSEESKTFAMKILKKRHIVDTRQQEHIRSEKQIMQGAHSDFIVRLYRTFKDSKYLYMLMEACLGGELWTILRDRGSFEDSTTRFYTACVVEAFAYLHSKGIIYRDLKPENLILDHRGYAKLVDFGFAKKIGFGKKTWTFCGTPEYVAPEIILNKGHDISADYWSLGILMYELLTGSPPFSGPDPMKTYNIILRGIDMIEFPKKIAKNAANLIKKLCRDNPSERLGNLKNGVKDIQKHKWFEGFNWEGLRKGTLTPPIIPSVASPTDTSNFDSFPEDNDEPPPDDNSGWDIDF

[12] = target: Homeodomain-interacting protein kinase 4 (Homo sapiens, UniProt Q8NE63); type: functional
[13] = target: Tyrosine-protein kinase receptor TYRO3 (Homo sapiens, UniProt Q06418); type: functional;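 note: TYRO3 value obtained as one member of a kinome-wide profiling panel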
[14] = target: Non-receptor tyrosine-protein kinase TYK2 (Homo sapiens, UniProt P29597); type: functional
[15] = target: Tyrosine-protein kinase FRK (Homo sapiens, UniProt P42685); type: functional;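 note: FRK tested as one member of a kinome panel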
[16] = target: Death-associated protein kinase 3 (Homo sapiens, UniProt O43293); type: functional;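 note: measured as one member of a kinome-wide profiling panel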
[17] = target: Serine/threonine-protein kinase 17A (Homo sapiens, UniProt Q9UEE5); type: functional
Serine/threonine-protein kinase 17A, sequence (Q9UEE5 whole entry, canonical isoform): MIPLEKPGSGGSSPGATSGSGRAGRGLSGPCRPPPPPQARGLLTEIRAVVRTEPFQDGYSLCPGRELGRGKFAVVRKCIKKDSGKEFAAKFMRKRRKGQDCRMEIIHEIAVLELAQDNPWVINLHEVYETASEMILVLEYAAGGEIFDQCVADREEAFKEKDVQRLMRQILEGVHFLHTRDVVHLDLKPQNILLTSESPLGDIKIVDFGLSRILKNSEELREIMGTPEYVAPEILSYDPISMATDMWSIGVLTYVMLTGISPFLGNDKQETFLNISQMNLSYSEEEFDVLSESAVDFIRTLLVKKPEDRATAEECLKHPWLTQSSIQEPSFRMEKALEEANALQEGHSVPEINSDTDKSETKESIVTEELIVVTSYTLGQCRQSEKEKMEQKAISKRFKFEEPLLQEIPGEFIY

[18] = target: Casein kinase I isoform alpha (Homo sapiens, UniProt P48729); type: functional
[19] = target: STE20-like serine/threonine-protein kinase (Homo sapiens, UniProt Q9H2G2); type: functional
[20] = target: Serine/threonine-protein kinase D3 (Homo sapiens, UniProt O94806); type: functional;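 note: determined within a kinase panel screen, with PRKCN as the panel member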
[21] = target: Serine/threonine-protein kinase pim-1 (Homo sapiens, UniProt P11309); type: functional
Serine/threonine-protein kinase pim-1, sequence (P11309 whole entry): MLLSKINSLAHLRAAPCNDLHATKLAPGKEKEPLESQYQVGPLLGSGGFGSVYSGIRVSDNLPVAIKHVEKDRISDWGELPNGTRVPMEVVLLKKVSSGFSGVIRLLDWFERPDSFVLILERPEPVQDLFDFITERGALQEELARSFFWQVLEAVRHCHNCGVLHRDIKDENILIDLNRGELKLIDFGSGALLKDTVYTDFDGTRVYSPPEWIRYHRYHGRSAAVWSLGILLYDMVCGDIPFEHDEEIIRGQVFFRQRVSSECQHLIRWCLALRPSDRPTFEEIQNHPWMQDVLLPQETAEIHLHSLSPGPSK

[22] = target: RAC-gamma serine/threonine-protein kinase (Homo sapiens, UniProt Q9Y243); type: functional
[23] = target: MAP kinase-interacting serine/threonine-protein kinase 2 (Homo sapiens, UniProt Q9HBH9); type: functional
[24] = target: Serine/threonine-protein kinase pim-2 (Homo sapiens, UniProt Q9P1W9); type: functional;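 note: value comes from a broad kinase panel profiling study in which PIM2 was one of the panel members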
[25] = target: Proto-oncogene tyrosine-protein kinase ROS (Homo sapiens, UniProt P08922); type: functional;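 note: ROS1 tested as one member of a kinome-wide kinase panel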
Proto-oncogene tyrosine-protein kinase ROS, sequence (P08922 whole entry): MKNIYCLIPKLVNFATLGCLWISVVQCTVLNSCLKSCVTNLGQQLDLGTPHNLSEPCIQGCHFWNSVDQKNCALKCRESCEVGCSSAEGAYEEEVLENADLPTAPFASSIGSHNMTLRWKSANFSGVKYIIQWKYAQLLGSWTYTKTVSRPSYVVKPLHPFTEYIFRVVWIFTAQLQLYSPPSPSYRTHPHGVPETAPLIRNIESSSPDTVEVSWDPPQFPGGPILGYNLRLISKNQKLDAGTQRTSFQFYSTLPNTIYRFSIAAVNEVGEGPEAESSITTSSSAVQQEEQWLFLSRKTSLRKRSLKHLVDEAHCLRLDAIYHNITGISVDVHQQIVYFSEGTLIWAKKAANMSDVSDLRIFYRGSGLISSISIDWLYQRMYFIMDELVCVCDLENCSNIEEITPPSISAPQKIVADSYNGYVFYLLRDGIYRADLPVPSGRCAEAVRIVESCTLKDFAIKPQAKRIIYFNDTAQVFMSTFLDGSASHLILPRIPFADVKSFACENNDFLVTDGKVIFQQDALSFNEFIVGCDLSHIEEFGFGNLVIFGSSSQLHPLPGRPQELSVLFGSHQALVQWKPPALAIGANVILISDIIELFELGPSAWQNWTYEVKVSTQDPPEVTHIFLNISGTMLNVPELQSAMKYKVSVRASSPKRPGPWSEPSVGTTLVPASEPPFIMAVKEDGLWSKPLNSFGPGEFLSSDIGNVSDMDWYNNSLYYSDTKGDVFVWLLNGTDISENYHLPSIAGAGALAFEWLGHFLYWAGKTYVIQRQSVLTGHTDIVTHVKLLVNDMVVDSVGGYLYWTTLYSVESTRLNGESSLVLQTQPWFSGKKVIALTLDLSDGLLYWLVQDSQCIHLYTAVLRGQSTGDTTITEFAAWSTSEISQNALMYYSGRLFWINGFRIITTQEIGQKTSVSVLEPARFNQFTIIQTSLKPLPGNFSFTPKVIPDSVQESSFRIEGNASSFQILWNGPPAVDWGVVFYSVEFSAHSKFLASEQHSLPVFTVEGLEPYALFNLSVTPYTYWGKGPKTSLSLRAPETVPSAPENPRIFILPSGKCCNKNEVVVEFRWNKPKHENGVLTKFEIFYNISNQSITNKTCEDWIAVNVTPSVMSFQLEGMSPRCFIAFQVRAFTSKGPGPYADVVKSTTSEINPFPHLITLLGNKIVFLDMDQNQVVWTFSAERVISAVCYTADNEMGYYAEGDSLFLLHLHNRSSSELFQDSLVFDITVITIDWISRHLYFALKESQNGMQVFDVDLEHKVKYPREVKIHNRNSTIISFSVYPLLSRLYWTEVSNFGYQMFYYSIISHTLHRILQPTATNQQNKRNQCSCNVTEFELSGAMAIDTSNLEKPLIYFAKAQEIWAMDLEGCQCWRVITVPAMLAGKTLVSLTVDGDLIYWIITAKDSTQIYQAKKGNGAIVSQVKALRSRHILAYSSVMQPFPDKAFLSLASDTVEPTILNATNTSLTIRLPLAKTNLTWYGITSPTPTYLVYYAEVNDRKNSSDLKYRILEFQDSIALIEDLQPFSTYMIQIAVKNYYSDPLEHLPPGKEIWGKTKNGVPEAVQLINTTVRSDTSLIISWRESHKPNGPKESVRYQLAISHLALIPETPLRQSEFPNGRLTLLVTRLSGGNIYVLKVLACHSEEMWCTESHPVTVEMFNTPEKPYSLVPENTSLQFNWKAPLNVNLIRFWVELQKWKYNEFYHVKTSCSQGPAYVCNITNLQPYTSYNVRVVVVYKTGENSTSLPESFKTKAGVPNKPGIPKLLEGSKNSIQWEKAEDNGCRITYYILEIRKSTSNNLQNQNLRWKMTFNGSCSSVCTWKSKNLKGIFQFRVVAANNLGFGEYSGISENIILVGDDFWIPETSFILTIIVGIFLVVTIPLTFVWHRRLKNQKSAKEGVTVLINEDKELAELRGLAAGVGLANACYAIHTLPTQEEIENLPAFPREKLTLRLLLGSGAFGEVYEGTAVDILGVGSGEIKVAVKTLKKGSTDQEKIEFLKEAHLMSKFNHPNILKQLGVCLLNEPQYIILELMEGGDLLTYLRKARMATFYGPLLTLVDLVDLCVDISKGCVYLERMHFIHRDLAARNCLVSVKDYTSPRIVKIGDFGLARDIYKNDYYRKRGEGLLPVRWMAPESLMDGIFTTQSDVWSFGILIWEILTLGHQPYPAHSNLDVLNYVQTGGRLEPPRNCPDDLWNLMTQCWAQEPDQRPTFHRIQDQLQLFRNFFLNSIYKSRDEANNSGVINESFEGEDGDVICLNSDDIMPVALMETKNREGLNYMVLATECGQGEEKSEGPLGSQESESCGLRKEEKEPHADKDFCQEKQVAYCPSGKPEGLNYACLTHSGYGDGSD

[26] = target: Tyrosine-protein kinase JAK2 (Homo sapiens, UniProt O60674); type: functional;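 note: JAK2 tested as one member of a kinase panel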
[27] = target: Cyclin-dependent kinase 1 (Homo sapiens, UniProt P06493); type: functional;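 note: Kinome-wide panel profiling, with the target listed as panel member CDC2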
[28] = target: Vascular endothelial growth factor receptor 1 (Homo sapiens, UniProt P17948); type: functional;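 note: measured within a kinome-wide profiling panel, FLT1 as the panel member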
[29] = target: Serine/threonine-protein kinase DCLK1 (Homo sapiens, UniProt O15075); type: functional;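 note: affinity for DCLK1 (listed as DCAMKL1) measured as one member of a kinome-wide kinase profiling panel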
[30] = target: Tyrosine-protein kinase Fer (Homo sapiens, UniProt P16591); type: functional;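 note: FER tested as one member of a kinome panel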
[31] = target: Tyrosine-protein kinase receptor UFO (Homo sapiens, UniProt P30530); type: functional
[32] = target: Interleukin-1 receptor-associated kinase 4 (Homo sapiens, UniProt Q9NWZ3); type: functional
[33] = target: Receptor tyrosine-protein kinase erbB-2 (Homo sapiens, UniProt P04626); test: Navigating the Kinome. Panel member name: ERBB2; type: functional
[34] = target: Mitogen-activated protein kinase kinase kinase kinase 2 (Homo sapiens, UniProt Q12851); type: functional;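 note: measured as one member of a kinome-wide kinase panel, with MAP4K2 as the panel entry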
[35] = target: Casein kinase I isoform delta (Homo sapiens, UniProt P48730); type: functional;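 note: measured as one member (CSNK1D) of a kinome panel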
Ephrin type-A receptor 2 = Ephrin type-A receptor 2 (Homo sapiens, UniProt P29317); type: functional;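 note: EPHA2 tested as one member of a kinome-wide kinase panel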
[36] = target: Homeodomain-interacting protein kinase 2 (Homo sapiens, UniProt Q9H2X6); type: functional;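 note: measured within a kinome-wide kinase profiling panel, HIPK2 being one panel member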
[37] = target: Cyclin-dependent kinase 5 (Homo sapiens, UniProt Q00535); type: functional;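 note: CDK5 measured as one member of a kinase profiling panel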
[38] = target: Serine/threonine-protein kinase PLK4 (Homo sapiens, UniProt O00444); type: functional;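 note: PLK4 measured as one member of a kinome-wide kinase profiling panel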
[39] = target: Epidermal growth factor receptor (Homo sapiens, UniProt P00533)
[40] = target: Mitogen-activated protein kinase 13 (Homo sapiens, UniProt O15264); type: functional
[41] = target: Serine/threonine-protein kinase 3 (Homo sapiens, UniProt Q13188); type: functional;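 note: measured as one member of a kinome-wide kinase panel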
[42] = target: Mitogen-activated protein kinase 8 (Homo sapiens, UniProt P45983); type: functional;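 note: value comes from one member of a kinome-wide kinase profiling panel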
Insulin receptor = Insulin receptor (Homo sapiens, UniProt P06213); type: functional;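 note: insulin receptor kinase tested as one member of a kinome-wide kinase panel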
Insulin receptor, sequence (P06213 28-758 limits assumed): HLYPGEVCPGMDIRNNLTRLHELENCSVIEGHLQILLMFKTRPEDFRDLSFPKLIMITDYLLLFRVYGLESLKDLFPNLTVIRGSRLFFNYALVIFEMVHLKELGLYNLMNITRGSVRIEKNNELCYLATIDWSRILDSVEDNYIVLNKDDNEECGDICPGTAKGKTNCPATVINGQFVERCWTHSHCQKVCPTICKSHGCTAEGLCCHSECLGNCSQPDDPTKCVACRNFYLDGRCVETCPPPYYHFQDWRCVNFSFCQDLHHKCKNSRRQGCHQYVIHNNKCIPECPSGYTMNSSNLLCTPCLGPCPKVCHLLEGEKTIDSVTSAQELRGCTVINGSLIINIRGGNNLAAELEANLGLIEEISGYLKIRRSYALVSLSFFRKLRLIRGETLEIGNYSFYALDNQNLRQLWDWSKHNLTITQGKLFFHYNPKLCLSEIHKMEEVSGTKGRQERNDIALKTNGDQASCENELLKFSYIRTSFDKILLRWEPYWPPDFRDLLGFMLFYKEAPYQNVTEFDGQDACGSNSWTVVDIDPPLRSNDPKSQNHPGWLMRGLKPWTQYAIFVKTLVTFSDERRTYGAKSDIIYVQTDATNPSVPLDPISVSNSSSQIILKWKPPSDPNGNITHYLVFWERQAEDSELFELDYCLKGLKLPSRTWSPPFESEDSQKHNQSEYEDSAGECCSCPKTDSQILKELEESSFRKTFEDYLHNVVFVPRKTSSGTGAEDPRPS
Insulin receptor, sequence (P06213 763-1382 limits assumed): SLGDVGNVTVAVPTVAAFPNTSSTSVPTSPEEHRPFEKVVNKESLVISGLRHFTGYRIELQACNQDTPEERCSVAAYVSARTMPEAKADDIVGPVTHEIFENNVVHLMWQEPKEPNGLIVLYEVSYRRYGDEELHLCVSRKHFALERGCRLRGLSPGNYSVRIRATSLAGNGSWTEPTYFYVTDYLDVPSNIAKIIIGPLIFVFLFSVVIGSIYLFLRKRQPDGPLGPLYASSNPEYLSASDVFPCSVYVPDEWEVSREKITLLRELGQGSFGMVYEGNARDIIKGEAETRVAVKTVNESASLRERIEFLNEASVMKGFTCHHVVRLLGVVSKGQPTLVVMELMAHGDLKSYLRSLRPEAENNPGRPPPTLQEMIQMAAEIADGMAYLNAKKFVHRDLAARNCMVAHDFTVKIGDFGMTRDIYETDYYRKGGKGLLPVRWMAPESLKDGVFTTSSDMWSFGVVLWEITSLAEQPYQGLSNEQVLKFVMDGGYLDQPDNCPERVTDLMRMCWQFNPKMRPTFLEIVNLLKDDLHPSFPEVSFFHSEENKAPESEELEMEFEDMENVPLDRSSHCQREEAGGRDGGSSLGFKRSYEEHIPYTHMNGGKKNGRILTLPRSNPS

[43] = target: Mast/stem cell growth factor receptor Kit (Homo sapiens, UniProt P10721); type: functional;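 note: KIT entry within a kinase panel assay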

- Ki [1]: > 1580 nM (inactive)
- Ki [2]: 3980 nM (active)
- Ki (Aurora kinase B): 3980 nM (active)
- Ki [3]: > 5010 nM (inactive)
- Ki [4]: > 1580 nM (inactive)
- Ki [5]: 7940 nM (active)
- Ki [6]: 2510 nM (active)
- Ki [7]: > 2510 nM (inactive)
- Ki [8]: 10000 nM (active)
- Ki [9]: > 10000 nM (inactive)
- Ki [10]: > 2510 nM (inactive)
- Ki (LIM domain kinase 1): 3980 nM (active)
- Ki [11]: 398 nM (active)
- Ki [12]: > 7940 nM (inactive)
- Ki [13]: > 2000 nM (inactive)
- Ki [14]: > 2000 nM (inactive)
- Ki [15]: > 2510 nM (inactive)
- Ki [17]: 251 nM (active)
- Ki [18]: > 6310 nM (inactive)
- Ki [19]: 1580 nM (active)
- Ki [20]: 1000 nM (active)
- Ki [21]: 3160 nM (active)
- Ki [22]: > 10000 nM (inactive)
- Ki [23]: 100 nM (active)
- Ki [24]: > 1580 nM (inactive)
- Ki [25]: > 2000 nM (inactive)
- Ki [26]: > 1580 nM (inactive)
- Ki [27]: 1580 nM (active)
- Ki [28]: > 398 nM (inactive)
- Ki [29]: > 10000 nM (inactive)
- Ki [30]: > 1580 nM (inactive)
- Ki [31]: > 2000 nM (inactive)
- Ki [32]: > 10000 nM (inactive)
- Ki [33]: 1000 nM (active)
- Ki [34]: 501 nM (active)
- Ki [35]: 3160 nM (active)
- Ki (Ephrin type-A receptor 2): > 3160 nM (inactive)
- Ki [36]: > 3160 nM (inactive)
- Ki [37]: 794 nM (active)
- Ki [38]: 200 nM (active)
- Ki [39]: > 2000 nM (inactive)
- Ki [40]: 794 nM (active)
- Ki [41]: 2510 nM (active)
- Ki [42]: 126 nM (active)
- Ki (Insulin receptor): > 5010 nM (inactive)
- Ki [43]: > 1260 nM (inactive)
SMILES: NC(=O)Cn1cc(-c2cc(-c3cc4ccccc4s3)c3[nH]ncc3c2)c2nc(N)ncc21
- Ki [16]: 1000 nM (active)
